Experimental data taken from patent US11058699B2, “Method and compositions for inhibition of double stranded DNA viruses” (WISCONSIN ALUMNI RESEARCH FOUNDATION, priority 2008, dated 2021).
“Also recorded” adds a separate entry of the source.

Legend:
[1] = test system: HPV pseudovirions hpvSEAP; assay: hpvSEAP pseudovirion infectivity assay (SEAP) in 293T cells; type: cell-based, HPV16
Description: FIG. 6. Early M phase arrest by CDK1 inhibition interferes with HPV infection. (FIG. 6A) 293T cells were treated with a CDK1 inhibitor, purvalanol A (3, 6, and 12 μM) and infected with hpvSEAP. […] The columns represent the mean, the bars represent the standard deviation. (FIG. 6B) Cell cycle arrest at M phase by purvalanol A (12 μM) is shown. Histograms indicate the cell cycle status of DMSO and purvalanol A-treated cells, respectively.
Cell cycle inhibitors block HPV infection. To identify mechanistic pathways and informative modulators of HPV infection, we tested nearly 5,000 compounds in known bioactive molecule libraries Prestwick (Prestwick Chemicals) and LOPAC (Library of Pharmacologically Active Compounds, Sigma), with HPV pseudovirions containing an SV40 promoter-driven secreted alkaline phosphatase (SEAP) reporter gene (hpvSEAP). […] Total RNA was extracted after 48 hours, and expression levels of HPV16 E1 ^E4 RNA transcripts were measured by qRT-PCR using E7, E2, and E5 sequence specific primers.
High throughput screening.
Infectivity assay. […] Infectivity of wild type HPV16 virions was examined by quantitative reverse transcriptase PCR (qRT-PCR) by amplifying viral mRNA signals from HPV16-treated 293TT cells. 293TT cells were infected with 50-100 vge/cell of packaged virus and incubated for 48 hours at 37° C.

wild type HPV16 = assay: Wild type HPV16 infection of 293T cells, early gene expression by qRT-PCR; type: cell-based; settings: 4 hours pre-treatment with 3 μM, 48 hours, compared with neutralizing antibody H16.7E
β-actin expression = assay: Cellular β-actin expression by qRT-PCR in 293T cells; type: cell-based, human; settings: 3 μM, 48 hours
hpv16wpA-RL = type: cell-based, HPV16; settings: 293T cells, 24 hour synchronization with aphidicolin, 4 hour treatment 3 μM, 48 hours
[2] = test system: influenza virus vector expressing RL; type: cell-based
HaCaT cells = assay: CellTiter-Glo Luminescent cell viability assay in HaCaT cells; settings: 3 μM, 48 hours
Description: The reporter RL activity (FIG. 1A) and cell viability (FIG. 1B) were measured by Renilla Luciferase Assay System (Promega) and CellTiter-Glo Luminescent cell viability assay (Promega), respectively. Human keratinocyte HaCaT cells were inoculated with HPV16 LCR-driven RL containing pseudovirions hpv16wpA-RL after 4 hours of pre-treatment with 3 μM of each compound, and reporter expression/cell viability were scored 48 hours later. The expression value is shown as viability to untreated cells with hpv16wpA-RL.

[3] = 293 cells, HPV16 pseudoviruses expressing SEAP or Renilla luciferase, or intact infectious HPV16 (early gene expression)

For `CC(C)[C@H](CO)Nc1nc(Nc2cccc(Cl)c2)c2ncn(C(C)C)c2n1` [Purvalanol A, purvalanol A], the “inhibition of HPV infection” value ([1]; 293T cells, 12 μM, hpvSEAP, 48 hours) was “about 5 fold” and the “inhibition of HPV infection, dose dependence” value ([1]; 293T cells, 3, 6 and 12 μM, SEAP after 48 hours) was “inhibited HPV infection dose-specifically”.

With `C[C@@]1(CO)[C@H](O)CC[C@@]2(C)[C@H]1CC[C@H]1C[C@@H]3C[C@@]12CC[C@]3(O)CO` [aphidicolin] the “HPV16 gene expression (wild type HPV16 virion infection)” value (wild type HPV16) was “blocked HPV16 gene expression even more efficiently than a neutralizing antibody”, the “cellular β-actin expression” value (β-actin expression) was “no effect; also recorded: not affected” and the “inhibition of HPV infection” value [1, 3] was “significantly and consistently inhibit; also recorded: most significant and consistent inhibition”. The “HPV infection (RL activity)” value (hpv16wpA-RL) was “efficiently blocked” and the “influenza infection (RL activity)” value [2] was “did not significantly affect”.

For `O=c1[nH]cc(F)c(=O)[nH]1` [5-fluorouracil], the “effect on cell viability” value (HaCaT cells) was “did not have any effect”.

For `COc1cc([C@@H]2c3cc4c(cc3[C@@H](O[C@@H]3O[C@@H]5CO[C@@H](C)O[C@H]5[C@H](O)[C@H]3O)[C@H]3COC(=O)[C@H]23)OCO4)cc(OC)c1O` [etoposide], the “HPV16 gene expression (wild type HPV16 virion infection)” value (wild type HPV16) was “blocked HPV16 gene expression even more efficiently than a neutralizing antibody”, the “cellular β-actin expression” value (β-actin expression) was “no effect; also recorded: not affected” and the “inhibition of HPV infection” value [1, 3] was “most significant and consistent inhibition”. For the same molecule, the “inhibition of HPV infection” value ([1]; 293 cells, HPV16 pseudoviruses expressing SEAP or Renilla luciferase, or intact infectious HPV16 (early gene expression), listed as etopside) was “significantly and consistently inhibit”, the “HPV infection (RL activity)” value (hpv16wpA-RL) was “efficiently blocked” and the “influenza infection (RL activity)” value [2] was “did not significantly affect”.
